Reference: patent publication US20190083498A1, “THERAPIES FOR HEMATOLOGIC MALIGNANCIES” (GILEAD CALISTOGA LLC, priority 2008, published 2019)
Several values for one entry are separate records, joined by “and”; a condition that tells them apart may be missing. Equal values may be shown once.

Columns and labels:
[1] = tested on: LB cells; assay: MM cell growth with IGF-1 or IL-6, MTT; format: cell-based, human; conditions: 0.625 μM-[…], IL-6 or IGF-1, 48 h
Description: LB cells (Myelomonocytic myeloma cell line) were cultured for 48 h with control media; with the compound of formula I, in the presence or absence of either IL-6 or IGF-1. […] Cells were pulsed with 10 μL of 5 mg/mL MTT to each well for the last 4 hours of 48-hour cultures, followed by 100 μL isopropanol containing 0.04 N HCl. Absorbance was measured at 570/630 nm using a spectrophotometer (Molecular Devices).

[2] = tested on: CCRF-SB cells; assay: Cell cycle FACS analysis, propidium iodide; format: cell-based; conditions: CCRF-SB ALL cell line
Description: Representative fluorescence-activated cell sorting (FACS) analysis of propidium iodide-stained CCRF-SB cells under normal growth conditions, and growth in the presence of the compound of formula I. The average percentage of cells in G0-G1, S, and G2-M phases is calculated in the table below the histographs.

[3] = tested on: T47D and HS-578T cell lines; assay: Proliferation of breast cancer cell lines, AlamarBlue; format: cell-based; conditions: with serum
Description: T47D and HS-578T cell lines were grown in the presence of serum plus the indicated concentrations of the compound of formula I. Proliferation was measured in triplicate wells by AlamarBlue® assay (Invitrogen) 96-well plates.

[4] = tested on: phospho-Akt(Ser473); assay: Constitutive Akt phosphorylation in leukemia and lymphoma cell lines, immunoblot; format: cell-based
Description: A large panel of leukemia and lymphoma cell lines was assessed for constitutive Akt phosphorylation. These cell lines represent B-lymphoma, T-lymphoma, ALL, Malignant histiocytosis, DLBCL and AML. […] Thereafter, cell were lysed, size-fractioned and immunoblotted with antibodies directed against phospho-Akt(Ser473).
The PI3K pathway is frequently deregulated in leukemia and lymphoma cell lines. […] In addition, PI3K pathway activation is dependent on p110δ.

[5] = tested on: HS-578T, T47D, and MCF7 cells; assay: Apoptosis in breast cancer cell lines, Annexin V-FITC/7AAD; format: cell-based; conditions: 24 h
Description: HS-578T, T47D, and MCF7 cells were treated with the compound of formula I or corresponding DMSO concentrations for 24 h. The percentage of apoptotic cells was determined by Annexin V-FITC/7AAD staining Bottom left, viable cells (Annexin V-FITC/[…] negative); bottom right, early apoptotic cells (Annexin V-FITC positive only); top right, mid-late apoptotic cells (Annexin V-FITC/7AAD double-positive); and top left, late apoptotic/necrotic (7AAD positive only). Percentages of cells in each quadrant are indicated except for the bottom left quadrant (viable cells).

[6] = tested on: cleavage of caspase 3 and PARP; assay: Caspase 3 and PARP cleavage, MSD multi-spot plates; format: cell-based; conditions: 5 or 10 μM; 24 hrs
Description: Thereafter, cells were lysed and sized-fractionated and immunoblotted with antibody directed against FLIP, FIG. 29. Additionally, whole cell lysates were added to MDS (Meso Scale Diagnostics) multi-spot 96-well 4 spot plates coated with Total caspase-3, cleaved caspase-3, cleaved PARP, and BSA. Proteins were detected with antibodies labeled with SULFO-TAG reagent and quantified.

[7] = Blood glucose and insulin levels of a subject; format: in vivo, human
[8] = tested on: p110δ-negative cell lines; assay: Growth inhibition of p110δ-negative MM cell lines, MTT; format: cell-based, human; conditions: 48 h
[9] = tested on: patient MM cells; assay: Viability of patient MM cells, MTT; format: cell-based, human; conditions: 48 h
Description: Patient MM and BM cells were obtained from BM samples after informed consent was obtained per the Declaration of Helsinki and approval by the Institutional Review Board of the Dana-Farber Cancer Institute (Boston, Mass.). BM mononuclear cells were separated using Ficoll-Paque™ density sedimentation, and plasma cells were purified (>95% CD138+) by positive selection with anti-CD138 magnetic activated cell separation micro beads (Miltenyi Biotec, Auburn, Calif.). Tumor cells were also purified from the BM of MM patients using the RosetteSep negative selection system (StemCell Technologies, Vancouver, BC, Canada).
Data represent mean ±SD viability, assessed by MTT assay of triplicate cultures, expressed as percentage of untreated controls.

[10] = tested on: INA-6 cells; assay: Cleavage of caspases and PARP, western blot; format: cell-based, human; conditions: 0-5 μM, 120 h
Description: (§1) Whole-cell lysates were subjected to sodium dodecyl sulfate-polyacrylamide gel electrophoresis (SDS-PAGE) separation, transferred to Pure Nitrocellulose membranes (Bio-Rad Laboratories, Hercules, Calif.), and immunoblotted with anti-AKT, phospho(p)-AKT (Ser473, Thr 308), ERK1/2 , P-ERK1/2, P-PDK1, STAT, P-STAT, P-FKRHL, P-70S6K, LC3, and PI3K/p110 α Abs (Cell Signaling Danvers, Mass.); anti-p110β, PI3K/p110δ, Glyceraldehyde 3-phosphate dehydrogenase (GAPDH), α-tubulin, and actin Abs (Santa Cruz Biotechnology, Calif.); and anti-p110 γ Ab (Alexis, San Diego, Calif.): and anti-LC3 Ab (Abgent, San Diego, Calif.).
Total cell lysates were subjected to immunoblotting using anti-caspase-3, -8, -9, PARP, and α-tubulin Abs. FL indicates full-length protein, and CL indicates cleaved protein.

[11] = tested on: INA-6 cells; assay: AKT and ERK pathway phosphorylation, immunoblotting; format: cell-based, human
Description: as §1
Actin Ab was used as a loading control. […] Whole cell lysates were subjected to immunoblotting using AKT, P-AKT (Ser473 and Thr308), ERK1/2, P-ERK1/2, P-PDK1, and P-FKRHL antibodies. α-tubulin is used as a loading control.

[12] = tested on: LB and INA-6 cells; assay: MM cell DNA synthesis with IL-6 or IGF-1, [3H]-thymidine incorporation; format: cell-based, human; conditions: 5.0 or 10 μM; IL-6 1 and 10 ng/ml, IGF-1 10 and 100 ng/mL
Description: DNA synthesis was determined by measuring [3H]-thymidine incorporation during the last 8 h of 72 h cultures. Data represent means (±SD) of triplicate cultures.

[13] = tested on: BMSCs; assay: BMSC viability, MTT; format: cell-based, human; conditions: 0-20 μM, 48 h
Description: Cell viability was assessed by MTT assay, FIG. 34G. Values represent mean ±SD of triplicate cultures.

[14] = tested on: HuVECs; assay: HuVEC viability, MTT; format: cell-based, human; conditions: 0-20 μM, 48 h
Description: Data shown are mean ±SE of triplicate wells from a representative experiment.

[15] = tested on: HuVEC cells; assay: AKT and ERK1/2 in HuVEC lysates, immunoblotting; format: cell-based, human; conditions: 0-200 μM; 8 h
Description: Actin was used as a loading control.

[16] = tested on: MCL cell lines; assay: Survival factor signaling (pAkt) in MCL cell lines; format: cell-based
[17] = tested on: CLL cells on StromaNKTert; assay: Calcein-based adhesion assay of CLL cells on stroma; format: cell-based, human
Description: Calcein-based adhesion assay: a confluent monolayer of CD154+ L or StromaNKTert cells was generated by plating 1×10^4 cells/well in 96-well plates for 24 hours. Single cell suspensions of CLL cells at 0.5×10^6 cells/ml were then labeled with 1 μg/mL Calcein-AM (Invitrogen) for 1 hour. Cells were then spun down and treated with compound or vehicle for 1 to 24 hours. Non-adherent cells were washed off by aspiration. CLL cell adhesion was quantified by fluorimetry (Ex/Em=485/520 nm), and visualized directly using the Nikon TE2000 inverted live-cell imaging system.

CC[C@H](Nc1ncnc2[nH]cnc12)c1nc2cccc(F)c2c(=O)n1-c1ccccc1 [Compound I, 5-fluoro-3-phenyl-2-[1-(9H-purin-6-ylamino)-propyl]-3H-quinazolin-4-one]
MM cell growth in the presence of cell growth stimulatory cytokines [1]: inhibits MM cell growth | cell cycle effect [2]: G0/G1 cell cycle arrest | proliferation of breast cancer cell lines [3]: inhibits proliferation | cell lines in which constitutive AKT phosphorylation was inhibited (FIG. 9) ([4]; 10 μM, 2 hrs, including B-cell and T-cell lymphomas): 11 out of 11 | constitutive Akt(Ser473) phosphorylation ([4]; hematopoietic tumor cell lines, 2 hours): Reduction in Akt(Ser473) was achieved for all cell lines | cell lines in which constitutive AKT phosphorylation was inhibited ([4]; leukemia and lymphoma cell lines with constitutive p-AKT): 13 of 13 and 13 out of 13 | apoptosis in breast cancer cell lines [5]: induces apoptosis | cleavage of caspase 3 and PARP [6]: dose dependent response | insulin levels ([7]; after 7 days of treatment): remained within the normal range | blood glucose concentration ([7]; after 10 days, highest dosage (50-200 mg BID)): remained steady | cytotoxicity in p110δ-negative cell lines [8]: minimal cytotoxicity | cytotoxicity against patient MM cells [9]: induced cytotoxicity | cleavage of caspase-8, caspase-9, caspase-3, and PARP [10]: Significantly increased cleavage | phosphorylation of upstream PDK-1 and downstream FKHRL ([11]; INA-6 and LB MM cells, 0-6 hours): significantly inhibited | phosphorylation of AKT and ERK1/2 ([11]; p110δ positive INA-6 cells): significantly blocked | growth inhibition in the presence of IL-6 or IGF-1 [12]: Neither IL-6 nor IGF-1 protected | growth inhibition in BMSCs [13]: no significant growth inhibition | cytotoxicity in HuVECs [14]: without associated cytotoxicity | phosphorylation and expression of AKT and ERK1/2 [15]: markedly down regulated | pAkt in MCL lines exposed to survival factors [16]: significant reduction of pAkt | CLL cell adherence to stroma after one hour [17]: reduced adherence | CLL cell adherence to stroma at 24 hours ([17]; 10 μM): less adherent
